From patent publication US6310247A, “7-aryl-6(Z)-heptatrienoic acid retinamides” (Hoffmann-LA Roche Inc., priority 1999, dated 2001) come the findings set out here.

Molecules are shown by their SMILES. Like-named read-outs stand apart in the source and are kept apart here.

This assay concerns RKO cells. The experiment in a line: Apoptosis: cell death detection by ELISA, RKO (colorectal carcinoma). It counts as cell-based, human. Particulars: for fold induction at 1 µM / fold induction at 3.3 µM / fold induction at 10 µM: Homo sapiens, RKO, read-out: Fold induction of apoptosis compared to no drug control. How it is done: Colorectal carcinoma, human (RKO) obtained from Dr. Bernie Vogelstein, were grown in Gibco's Delbecco Minimum Essential media (DMEM), high glucose, supplemented with sodium pyruvate, 10% FBS and 13 ng/mL gentamicin. Cells were incubated at 37° C., 4.5% CO2 and 95.5% humidified air.
2. Apoptosis: Cell death detection by ELISA:
Compounds of formula 1 were tested for the ability to cause apoptosis as follows:
Cells and media were collected, cells were pelleted, resuspended in 100 μl lysis buffer (50 mM Tris-Cl (pH=8.0), 20 mM EDTA, 1% NP-40e) and incubated 30 minutes at 4° C. to lyse. Cell debris was spun down and an aliquot (30 μl) of the […] was removed for protein determination and stored at -20° C. An additional 280 μl of lysis buffer, was added, mixed thoroughly and spun down at 14,000 RPM for 10 minutes at 4° C. An aliquot was removed (180 μl) and the sample was stored at -20° C. until testing.
A commercially available apoptosis detection kit, obtained from Boehringer Mannheim (Cat. No. 1544-674), was used as per the directions provided with the kit (Cell Death Detection ELISA). However, the protocol was modified in that a 1:40 to 1:100 dilution of sample was prepared, rather than the recommended 1:10 dilution, due to the increase in cell number used to prepare the sample extract and the subsequent increase in ELISA reactivity. The assay measures apoptosis by quantifying the amount of nucleosomal fragmentation from the extracts of cells treated with the test compounds (samples). These nucleosomal fragments, generated by the activation of endonucleases, are a known downstream effector of apoptosis. Antihistone antibodies are used to fix any nucleosomal fragments in the sample to the well of the microtiter plates. The sample is then incubated with anti-DNA antibodies conjugated to peroxidase and subsequently incubated with the peroxidase substrate, ABTS. The resulting colorimetric change is measured spectrophotometrically at 405/490nm.
The total protein content of each sample was determined for the purpose of normalizing the ELISA values to amount of sample loaded. Microplate assay protocol described in the instruction manual, for (Biorad DC Assay, Cat.#500-0116) section 5.2. The protein concentrations were calculated based upon a linear regression curve.
d) ELISA assay calculations
Relative ELISA O.D. readings are determined by subtracting the ELISA plate background O.D. value. No drug control O.D. value (lysis buffer only) was subtracted from sample O.D. value. A correction coefficient (CC), based on the sample protein concentration compared to no drug control, was determined to correct the sample O.D. following subtraction of the background O.D. (BCS O.D.). The fold increase over no drug control is calculated and normalized to the total protein concentration of the samples by multiplying against the correction coefficient.
To determine the fold increase in ELISA O.D., obtain the following O.D. measurements:
ELISA plate background--lysis buffer only (EPB);
no drug treated control--cell sample treated with DMSO (NDT);
drug treated sample--cell sample treated with a compound of formula 1 (DT) Subtract EPB from NDT (NDT-EPB) and DT (DT-EPB). The fold increase of the treated over the control is then (DT-EPB)/(NDT-EPB).
To determine the total protein concentration of the samples, obtain the total protein concentration in mg/ul calculated using standard linear regression formula (y=mx+b) based on BSA standards. B=ELISA background. Protein concentration (PC)(mg/ml)=(sample absorbance-b)/x.
Correction coefficient (cc) is (NDT)(PC)/(DT)(PC).
Determine fold increase of ELISA (FT) normalized to total PC:
nDT is DT×cc (which is DT O.D. normalized to PC)
nNDT is NDT×cc (which is NDT O.D. normalized to PC)
FI normalized to PC is nDT/nNDT.
On the technique in general: An ELISA detects its analyte on a solid surface through an enzyme-linked reagent.

Turning to `C/C(=C/C=C/C(C)=C/C(=O)Nc1ccc(O)cc1)c1cc(C(F)(F)F)cc(C(F)(F)F)c1` [N-(4-hydroxyphenyl)-(2E,4E,6Z)-7-[3,5-bis(trifluoromethyl)phenyl]-3,7-dimethyl-2,4,6-heptatrienamide], under “24 hrs”, the fold induction at 1 µM stood at 2, the fold induction at 3.3 µM was determined as 14 and the fold induction at 10 µM worked out at 21. In addition, where the note is “48 hrs”, the fold induction at 1 µM turned out to be 4, the fold induction at 3.3 µM is 5 and the fold induction at 10 µM stood at 23. Further, under “72 hrs”, the fold induction at 1 µM turned out to be 1, the fold induction at 3.3 µM came out at 1 and the fold induction at 10 µM was 15. Besides, the “Induction of apoptosis (in words)” value (after 24 hours) is listed as “induces significant apoptosis”.
